From ChEMBL document CHEMBL3425436, “Assessing the oral bioavailability of difluorosialic acid prodrugs, potent viral neuraminidase inhibitors, using a snapshot PK screening assay” (Bioorg Med Chem Lett, 2015)

Assays:
Mus musculus [1] = assay: Total plasma concentration in CD1 mouse assessed as (2R,3R,4R,5R,6R)-5-acetamido-4-amino-2,3-difluoro-6-((1R,2R)-1,2,3-trihydroxypropyl)tetrahydro-2H-pyran-2-carboxylic acid at 30 mg/kg, po measured at 60 mins by reversed-phase UPLC/MS analysis; assay type: ADME, organism-based; parameters: dose 30 mg/kg, route oral; conditions: in vivo, 1 h
Mus musculus [2] = assay: Total plasma concentration in CD1 mouse assessed as (2R,3R,4R,5R,6R)-5-acetamido-4-amino-2,3-difluoro-6-((1R,2R)-1,2,3-trihydroxypropyl)tetrahydro-2H-pyran-2-carboxylic acid at 30 mg/kg, po measured at 20 mins by reversed-phase UPLC/MS analysis; assay type: ADME, organism-based; parameters: dose 30 mg/kg, route oral; conditions: in vivo
Mus musculus [3] = assay: Oral bioavailability in CD1 mouse assessed as (2R,3R,4R,5R,6R)-5-acetamido-4-amino-2,3-difluoro-6-((1R,2R)-1,2,3-trihydroxypropyl)tetrahydro-2H-pyran-2-carboxylic acid at 30 mg/kg; assay type: ADME, organism-based; conditions: in vivo
Mus musculus [4] = assay: AUC in CD1 mouse assessed as (2R,3R,4R,5R,6R)-5-acetamido-4-amino-2,3-difluoro-6-((1R,2R)-1,2,3-trihydroxypropyl)tetrahydro-2H-pyran-2-carboxylic acid at 30 mg/kg, po; assay type: ADME, organism-based, Plasma; parameters: dose 30 mg/kg, route oral; conditions: in vivo
[5] = Metabolic stability in mouse plasma at 10 uM measured at 15 mins; assay type: ADME, cell-free; conditions: read-out: Stability
[6] = Stability in simulated gastric fluid at 10 uM at pH 4 measured at 60 mins; assay type: ADME; conditions: read-out: Stability
[7] = Stability in simulated gastric fluid at 10 uM at pH 1 measured at 60 mins; assay type: ADME; conditions: read-out: Stability
[8] = Stability in simulated gastric fluid at 10 uM at pH 4 measured at 15 mins; assay type: ADME; conditions: read-out: Stability
Mus musculus [9] = assay: Tmax in CD1 mouse assessed as (2R,3R,4R,5R,6R)-5-acetamido-4-amino-2,3-difluoro-6-((1R,2R)-1,2,3-trihydroxypropyl)tetrahydro-2H-pyran-2-carboxylic acid at 30 mg/kg, po; assay type: ADME, organism-based; parameters: dose 30 mg/kg, route oral; conditions: in vivo
[10] = Metabolic stability in mouse plasma at 10 uM measured at 60 mins; assay type: ADME, cell-free; conditions: read-out: Stability
Mus musculus [11] = assay: Cmax in CD1 mouse assessed as (2R,3R,4R,5R,6R)-5-acetamido-4-amino-2,3-difluoro-6-((1R,2R)-1,2,3-trihydroxypropyl)tetrahydro-2H-pyran-2-carboxylic acid at 30 mg/kg, po; assay type: ADME, organism-based; parameters: dose 30 mg/kg, route oral; conditions: in vivo
[12] = Stability in simulated gastric fluid at 10 uM at pH 1 measured at 15 mins; assay type: ADME; conditions: read-out: Stability
[13] = Total plasma concentration in CD1 mouse at 30 mg/kg, po measured at 20 mins by reversed-phase UPLC/MS analysis; assay type: ADME, organism-based; parameters: dose 30 mg/kg, route oral
[14] = Total plasma concentration in CD1 mouse at 30 mg/kg, po measured at 60 mins by reversed-phase UPLC/MS analysis; assay type: ADME, organism-based; parameters: dose 30 mg/kg, route oral

SMILES	concentration (Mus musculus [1])	concentration (Mus musculus [2])	also measured
COC(=O)[C@]1(F)O[C@@H]([C@H](O)[C@H]2COC3(CCCCC3)O2)[C@H](NC(C)=O)[C@@H](N)[C@H]1F	390 nM		
CC(=O)N[C@@H]1[C@@H](N)[C@@H](F)[C@](F)(C(=O)NCc2ccccc2F)O[C@H]1[C@H](O)[C@H](O)CO	840 nM	660 nM	
CCCCCOC(=O)[C@]1(F)O[C@@H]([C@H](O)[C@H](O)CO)[C@H](NC(C)=O)[C@@H](N)[C@H]1F	3500 nM	2740 nM	F (Mus musculus [3]): 5.5%; AUC (Mus musculus [4]): 462 µmol·min; remaining at 0.25 h, 10 µM [5]: 81%; remaining at 1 h, 10 µM [6]: 100%; remaining at 1 h, 10 µM [7]: 96%; remaining at 0.25 h, 10 µM [8]: 100%; Tmax (Mus musculus [9]): 1 h; remaining at 1 h, 10 µM [10]: 24%; Cmax (Mus musculus [11]): 4700 nM; remaining at 0.25 h, 10 µM [12]: 99%
CCCCCCCCOC(=O)[C@]1(F)O[C@@H]([C@H](O)[C@H](O)CO)[C@H](NC(C)=O)[C@@H](N)[C@H]1F	7110 nM	3230 nM	
CC(=O)N[C@@H]1[C@@H](N)[C@@H](F)[C@](F)(C(=O)OCCCCC(F)(F)F)O[C@H]1[C@H](O)[C@H](O)CO	4020 nM	2540 nM	
CC(=O)N[C@@H]1[C@@H](N)[C@@H](F)[C@](F)(C(=O)OCCCOC(=O)C(C)(C)C)O[C@H]1[C@H](O)[C@H](O)CO	3360 nM	1300 nM	
CC(=O)N[C@@H]1[C@@H](N)[C@@H](F)[C@](F)(C(=O)OCCCCCOC(=O)C(C)(C)C)O[C@H]1[C@H](O)[C@H](O)CO	3770 nM	1870 nM	
CC(=O)N[C@@H]1[C@@H](N)[C@@H](F)[C@](F)(C(=O)OCC(=O)N(C)C)O[C@H]1[C@H](O)[C@H](O)CO	4390 nM	5690 nM	remaining at 1 h, 10 µM [6]: 74%; remaining at 1 h, 10 µM [7]: 25%; remaining at 0.25 h, 10 µM [8]: 88%; remaining at 0.25 h, 10 µM [12]: 53%
CC(=O)N[C@@H]1[C@@H](N)[C@@H](F)[C@](F)(C(=O)OCCC(=O)N(C)C)O[C@H]1[C@H](O)[C@H](O)CO	3750 nM	1400 nM	
CC(=O)N[C@@H]1[C@@H](N)[C@@H](F)[C@](F)(C(=O)OCCCCCOC(=O)c2ccc3ccccc3c2O)O[C@H]1[C@H](O)[C@H](O)CO	800 nM	290 nM	
CC(=O)N[C@@H]1[C@@H](N)[C@@H](F)[C@](F)(C(N)=O)O[C@H]1[C@H](O)[C@H](O)CO	3330 nM	710 nM	
COC(=O)[C@]1(F)O[C@@H]([C@H](O)[C@H]2COC(C(C)C)(C(C)C)O2)[C@H](NC(C)=O)[C@@H](N)[C@H]1F	730 nM	620 nM	
COC(=O)[C@]1(F)O[C@@H]([C@H](O)[C@H]2COC(=O)O2)[C@H](NC(C)=O)[C@@H](N)[C@H]1F	730 nM	350 nM	
COC(=O)[C@]1(F)O[C@@H]([C@H](O)[C@H](O)COC(=O)OCC(C)(C)C)[C@H](NC(C)=O)[C@@H](N)[C@H]1F	6010 nM	2100 nM	
CC(=O)N[C@H]1[C@H]([C@H](O)[C@H](O)CO)OC(C(=O)O)=C[C@@H]1N=C(N)N [ZANAMIVIR]			concentration at 20 min [13]: 1310 nM; concentration at 1 h [14]: 1300 nM

Now from value to compound, other results behind:

concentration (Mus musculus [1])	concentration (Mus musculus [2])	SMILES	also measured
2150 nM	1140 nM	CC(=O)N[C@@H]1[C@@H](N)[C@@H](F)[C@](F)(C(=O)NC2CCCCC2)O[C@H]1[C@H](O)[C@H](O)CO	
810 nM	310 nM	CC(=O)N[C@@H]1[C@@H](N)[C@@H](F)[C@](F)(C(=O)NCc2cccc(F)c2)O[C@H]1[C@H](O)[C@H](O)CO	
5340 nM	6440 nM	COC(=O)[C@]1(F)O[C@@H]([C@H](O)[C@H](O)CO)[C@H](NC(C)=O)[C@@H](N)[C@H]1F	F (Mus musculus [3]): 2.2%; AUC (Mus musculus [4]): 219 µmol·min; remaining at 0.25 h, 10 µM [5]: 90%; remaining at 1 h, 10 µM [6]: 99%; remaining at 1 h, 10 µM [7]: 75%; remaining at 0.25 h, 10 µM [8]: 100%; Tmax (Mus musculus [9]): 1 h; remaining at 1 h, 10 µM [10]: 6%; Cmax (Mus musculus [11]): 1600 nM; remaining at 0.25 h, 10 µM [12]: 100%
3580 nM	2070 nM	CCOC(=O)[C@]1(F)O[C@@H]([C@H](O)[C@H](O)CO)[C@H](NC(C)=O)[C@@H](N)[C@H]1F	
13000 nM	12200 nM	CC(=O)N[C@@H]1[C@@H](N)[C@@H](F)[C@](F)(C(=O)OC(C)C)O[C@H]1[C@H](O)[C@H](O)CO	F (Mus musculus [3]): 0.9%; AUC (Mus musculus [4]): 78 µmol·min; remaining at 0.25 h, 10 µM [5]: 100%; remaining at 1 h, 10 µM [6]: 99%; remaining at 1 h, 10 µM [7]: 98%; remaining at 0.25 h, 10 µM [8]: 99%; Tmax (Mus musculus [9]): 1 h; remaining at 1 h, 10 µM [10]: 87%; Cmax (Mus musculus [11]): 500 nM; remaining at 0.25 h, 10 µM [12]: 100%
2880 nM	1030 nM	CC(=O)N[C@@H]1[C@@H](N)[C@@H](F)[C@](F)(C(=O)OC2CCCC2)O[C@H]1[C@H](O)[C@H](O)CO	
4670 nM	3410 nM	CC(=O)N[C@@H]1[C@@H](N)[C@@H](F)[C@](F)(C(=O)OCC2CCCCC2)O[C@H]1[C@H](O)[C@H](O)CO	F (Mus musculus [3]): 9.3%; AUC (Mus musculus [4]): 736 µmol·min; remaining at 0.25 h, 10 µM [5]: 98%; remaining at 1 h, 10 µM [6]: 100%; remaining at 1 h, 10 µM [7]: 100%; remaining at 0.25 h, 10 µM [8]: 100%; Tmax (Mus musculus [9]): 1 h; remaining at 1 h, 10 µM [10]: 64%; Cmax (Mus musculus [11]): 1200 nM; remaining at 0.25 h, 10 µM [12]: 100%
2920 nM	440 nM	CCCCCCCCCCCCOC(=O)[C@]1(F)O[C@@H]([C@H](O)[C@H](O)CO)[C@H](NC(C)=O)[C@@H](N)[C@H]1F	
300 nM	250 nM	CC(=O)N[C@@H]1[C@@H](N)[C@@H](F)[C@](F)(C(=O)OCCCOC(=O)c2ccc3ccccc3c2O)O[C@H]1[C@H](O)[C@H](O)CO	
1390 nM	690 nM	CC(=O)N[C@@H]1[C@@H](N)[C@@H](F)[C@](F)(C(=O)NCCO)O[C@H]1[C@H](O)[C@H](O)CO	
590 nM	270 nM	CC(=O)N[C@@H]1[C@@H](N)[C@@H](F)[C@](F)(C(=O)NCc2ccccc2)O[C@H]1[C@H](O)[C@H](O)CO	
4390 nM	2550 nM	COC(=O)CNC(=O)[C@]1(F)O[C@@H]([C@H](O)[C@H](O)CO)[C@H](NC(C)=O)[C@@H](N)[C@H]1F	
11300 nM	9930 nM	COC(=O)[C@]1(F)O[C@@H]([C@H](O)[C@H](O)COC(=O)OCC(C)C)[C@H](NC(C)=O)[C@@H](N)[C@H]1F	F (Mus musculus [3]): 3.9%; AUC (Mus musculus [4]): 293 µmol·min; remaining at 0.25 h, 10 µM [5]: 81%; remaining at 1 h, 10 µM [6]: 86%; remaining at 1 h, 10 µM [7]: 74%; remaining at 0.25 h, 10 µM [8]: 98%; Tmax (Mus musculus [9]): 1 h; remaining at 1 h, 10 µM [10]: 17%; Cmax (Mus musculus [11]): 2700 nM; remaining at 0.25 h, 10 µM [12]: 90%
6880 nM	2970 nM	CCCCCCCCOC(=O)OC[C@@H](O)[C@@H](O)[C@@H]1O[C@@](F)(C(=O)OC)[C@H](F)[C@H](N)[C@H]1NC(C)=O	F (Mus musculus [3]): 6.7%; AUC (Mus musculus [4]): 452 µmol·min; remaining at 1 h, 10 µM [6]: 88%; remaining at 1 h, 10 µM [7]: 90%; remaining at 0.25 h, 10 µM [8]: 94%; Tmax (Mus musculus [9]): 1 h; Cmax (Mus musculus [11]): 4100 nM; remaining at 0.25 h, 10 µM [12]: 99%
2250 nM	1950 nM	CCC1(CC)OC[C@H]([C@@H](O)[C@@H]2O[C@@](F)(C(=O)OC)[C@H](F)[C@H](N)[C@H]2NC(C)=O)O1	
1690 nM	490 nM	COC(=O)[C@]1(F)O[C@@H]([C@H](O)[C@H]2COC3(CCCC3)O2)[C@H](NC(C)=O)[C@@H](N)[C@H]1F	
	90 nM	COC(=O)OC[C@@H](O)[C@@H](O)[C@@H]1O[C@@](F)(C(=O)OC)[C@H](F)[C@H](N)[C@H]1NC(C)=O	
2690 nM	1680 nM	COC(=O)[C@]1(F)O[C@@H]([C@H](O)[C@H](O)COC(=O)OC(C)C)[C@H](NC(C)=O)[C@@H](N)[C@H]1F	
750 nM	620 nM	COC(=O)[C@]1(F)O[C@@H]([C@H](O)[C@H](O)COC(=O)OCC2c3ccccc3-c3ccccc32)[C@H](NC(C)=O)[C@@H](N)[C@H]1F	
620 nM	960 nM	COC(=O)[C@]1(F)O[C@@H]([C@H](O)[C@H](O)COP(=O)(OC)OC)[C@H](NC(C)=O)[C@@H](N)[C@H]1F	
2550 nM	1000 nM	CCOP(=O)(OCC)OC[C@@H](O)[C@@H](O)[C@@H]1O[C@@](F)(C(=O)OC)[C@H](F)[C@H](N)[C@H]1NC(C)=O	
